Measured values reported in patent US8541407B2 (ArQule, Inc., priority 2010, dated 2013).

target: AKT1 (Homo sapiens (Human), UniProt P31749); experiment: Inactive Akt Alpha Screen Assay; conditions: non *labeled: Akt Alpha Screen assay; read-out: AKT1 biochemical assay, IC50
Outline: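 AKT1 activated in situ by PDK1, MAPKAPK2, lipid vesicles and ATP, then phosphorylating biotinylated crosstide for 30 min at room temperature. Stopped with 10 mM EDTA; phosphopeptide detected by AlphaScreen using phospho-AKT substrate antibody (1:350), Protein A acceptor and streptavidin donor beads, 90 min dark, ex 640/em 570 nm.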

Chain of AKT1 (P31749 whole entry): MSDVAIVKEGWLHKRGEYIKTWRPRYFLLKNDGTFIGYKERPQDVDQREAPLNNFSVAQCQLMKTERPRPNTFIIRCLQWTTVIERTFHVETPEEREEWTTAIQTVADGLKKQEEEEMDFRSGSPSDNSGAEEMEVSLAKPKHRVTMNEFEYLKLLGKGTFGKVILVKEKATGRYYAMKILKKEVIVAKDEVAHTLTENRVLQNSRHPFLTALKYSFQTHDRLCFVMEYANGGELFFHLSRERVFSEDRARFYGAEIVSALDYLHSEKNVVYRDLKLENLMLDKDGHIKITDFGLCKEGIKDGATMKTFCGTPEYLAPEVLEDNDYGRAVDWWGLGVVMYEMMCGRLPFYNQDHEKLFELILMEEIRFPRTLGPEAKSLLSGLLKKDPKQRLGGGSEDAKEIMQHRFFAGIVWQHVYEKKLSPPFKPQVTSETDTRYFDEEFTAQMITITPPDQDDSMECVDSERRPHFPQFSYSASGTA

| IC50 [nM] | SMILES |
| --- | --- |
| 5800 | O=S(=O)(NCCc1ccc(-c2nnc3n2-c2cccnc2Nc2ccccc2-3)cc1)c1ccccc1 [Example 108, N-(4-(9H-benzo[f]pyrido[2,3-b][1,2,4]triazolo[4,3-d][1,4]diazepin-3-yl)phenethyl)benzenesulfonamide] |
| 9100 | COc1ccc(S(=O)(=O)NCCc2ccc(-c3nnc4n3-c3cccnc3Nc3ccccc3-4)cc2)cc1 [Example 109, N-(4-(9H-benzo[f]pyrido[2,3-b][1,2,4]triazolo[4,3-d][1,4]diazepin-3-yl)phenethyl)-4-methoxybenzenesulfonamide] |
| 630 | O=C(NCCc1ccc(-c2nnc3n2-c2cccnc2Nc2ccccc2-3)cc1)c1ccccc1 [Example 111, N-(4-(9H-benzo[f]pyrido[2,3-b][1,2,4]triazolo[4,3-d][1,4]diazepin-3-yl)phenethyl)benzamide] |
| 170 | O=S(=O)(NCc1ccc(-c2nnc3n2-c2cccnc2Nc2ccccc2-3)cc1)c1ccccc1F [Example 112, N-(4-(9H-benzo[f]pyrido[2,3-b][1,2,4]triazolo[4,3-d][1,4]diazepin-3-yl)benzyl)-2-fluorobenzenesulfonamide] |
| 400 | O=S(=O)(NCc1ccc(-c2nnc3n2-c2cccnc2Nc2ccccc2-3)cc1)c1cccc(F)c1 [Example 113, N-(4-(9H-benzo[f]pyrido[2,3-b][1,2,4]triazolo[4,3-d][1,4]diazepin-3-yl)benzyl)-3-fluorobenzenesulfonamide] |
| 220 | O=S(=O)(NCc1ccc(-c2nnc3n2-c2cccnc2Nc2ccccc2-3)cc1)c1ccc(Cl)cc1 [Example 119, N-(4-(9H-benzo[f]pyrido[2,3-b][1,2,4]triazolo[4,3-d][1,4]diazepin-3-yl)benzyl)-4-chlorobenzenesulfonamide] |
| 140 | CC(=O)Nc1ccc(S(=O)(=O)NCc2ccc(-c3nnc4n3-c3cccnc3Nc3ccccc3-4)cc2)cc1 [Example 120, N-(4-(N-(4-(9H-benzo[f]pyrido[2,3-b][1,2,4]triazolo[4,3-d][1,4]diazepin-3-yl)benzyl)sulfamoyl)phenyl) acetamide] |
| 1100 | O=C(NCc1ccc(-c2nnc3n2-c2cccnc2Nc2ccccc2-3)cc1)Nc1cccc(F)c1 [Example 122, 1-(4-(9H-benzo[f]pyrido[2,3-b][1,2,4]triazolo[4,3-d][1,4]diazepin-3-yl)benzyl)-3-(3-fluorophenyl)urea] |
| 1200 | O=C(NCc1ccc(-c2nnc3n2-c2cccnc2Nc2ccccc2-3)cc1)Nc1ccc(F)cc1 [Example 124, 1-(4-(9H-benzo[f]pyrido[2,3-b][1,2,4]triazolo[4,3-d][1,4]diazepin-3-yl)benzyl)-3-(4-fluorophenyl)urea] |
| 480 | Cc1cccc(NC(=O)NCc2ccc(-c3nnc4n3-c3cccnc3Nc3ccccc3-4)cc2)c1 [Example 125, 1-(4-(9H-benzo[f]pyrido[2,3-b][1,2,4]triazolo[4,3-d][1,4]diazepin-3-yl)benzyl)-3-(m-tolyl)urea] |
| 250 | c1ccc(-c2nnc(C3CCN(Cc4ccc(-c5nnc6n5-c5ccccc5Nc5ccccc5-6)cc4)CC3)[nH]2)nc1 [Example 129, 3-(4-((4-(5-(pyridin-2-yl)-4H-1,2,4-triazol-3-yl)piperidin-1-yl)methyl)phenyl)-9H-dibenzo[b,f][1,2,4]triazolo[4,3-d][1,4]diazepine] |
| 1700 | N#Cc1ccc(C(=O)NC2CCN(Cc3ccc(-c4nnc5n4-c4cccnc4Nc4ccccc4-5)cc3)CC2)cc1 [Example 130, N-(1-(4-(9H-benzo[f]pyrido[2,3-b][1,2,4]triazolo[4,3-d][1,4]diazepin-3-yl)benzyl)piperidin-4-yl)-4-cyanobenzamide] |
| 170 | c1ccc2c(c1)Nc1ncccc1-n1c(-c3ccc(CN4CCC(c5nnc(-c6ccncc6)[nH]5)CC4)cc3)nnc1-2 [Example 131, 3-(4-((4-(5-(pyridin-4-yl)-4H-1,2,4-triazol-3-yl)piperidin-1-yl)methyl)phenyl)-9H-benzo[f]pyrido[2,3-b][1,2,4]triazolo[4,3-d][1,4]diazepine] |
| 3200 | O=C(c1ccc(F)cc1)N1CCN(Cc2ccc(-c3nnc4n3-c3cccnc3Nc3ccccc3-4)cc2)CC1 [Example 132, (4-(4-(9H-benzo[f]pyrido[2,3-b][1,2,4]triazolo[4,3-d][1,4]diazepin-3-yl)benzyl)piperazin-1-yl)(4-fluorophenyl)methanone] |
| 3400 | O=C(C1CCCC1)N1CCN(Cc2ccc(-c3nnc4n3-c3cccnc3Nc3ccccc3-4)cc2)CC1 [Example 133, (4-(4-(9H-benzo[f]pyrido[2,3-b][1,2,4]triazolo[4,3-d][1,4]diazepin-3-yl)benzyl)piperazin-1-yl)(cyclopentyl)methanone] |
| 430 | COc1ccccc1C(=O)N1CCN(Cc2ccc(-c3nnc4n3-c3cccnc3Nc3ccccc3-4)cc2)CC1 [Example 134, (4-(4-(9H-benzo[f]pyrido[2,3-b][1,2,4]triazolo[4,3-d][1,4]diazepin-3-yl)benzyl)piperazin-1-yl)(2-methoxyphenyl)methanone] |
| 3400 | O=C(CCc1ccccc1)N1CCN(Cc2ccc(-c3nnc4n3-c3cccnc3Nc3ccccc3-4)cc2)CC1 [Example 135, 1-(4-(4-(9H-benzo[f]pyrido[2,3-b][1,2,4]triazolo[4,3-d][1,4]diazepin-3-yl)benzyl)piperazin-1-yl)-3-phenylpropan-1-one] |
| 1300 | Cc1cccc(C(=O)N2CCN(Cc3ccc(-c4nnc5n4-c4cccnc4Nc4ccccc4-5)cc3)CC2)c1 [Example 136, (4-(4-(9H-benzo[f]pyrido[2,3-b][1,2,4]triazolo[4,3-d][1,4]diazepin-3-yl)benzyl)piperazin-1-yl)(m-tolyl)methanone] |
| 1400 | COc1ccc(C(=O)N2CCN(Cc3ccc(-c4nnc5n4-c4cccnc4Nc4ccccc4-5)cc3)CC2)cc1 [Example 137, (4-(4-(9H-benzo[f]pyrido[2,3-b][1,2,4]triazolo[4,3-d][1,4]diazepin-3-yl)benzyl)piperazin-1-yl)(4-methoxyphenyl)methanone] |
| 2200 | COc1cccc(C(=O)N2CCN(Cc3ccc(-c4nnc5n4-c4cccnc4Nc4ccccc4-5)cc3)CC2)c1 [Example 138, (4-(4-(9H-benzo[f]pyrido[2,3-b][1,2,4]triazolo[4,3-d][1,4]diazepin-3-yl)benzyl)piperazin-1-yl)(3-methoxyphenyl)methanone] |
| 990 | N#Cc1ccc(C(=O)N2CCN(Cc3ccc(-c4nnc5n4-c4cccnc4Nc4ccccc4-5)cc3)CC2)cc1 [Example 139, 4-(4-(4-(9H-benzo[f]pyrido[2,3-b][1,2,4]triazolo[4,3-d][1,4]diazepin-3-yl)benzyl)piperazine-1-carbonyl)benzonitrile] |
| 450 | O=C(c1ccccc1F)N1CCN(Cc2ccc(-c3nnc4n3-c3cccnc3Nc3ccccc3-4)cc2)CC1 [Example 141, (4-(4-(9H-benzo[f]pyrido[2,3-b][1,2,4]triazolo[4,3-d][1,4]diazepin-3-yl)benzyl)piperazin-1-yl)(2-fluorophenyl)methanone] |
| 2900 | Cc1cc(C(=O)N2CCN(Cc3ccc(-c4nnc5n4-c4cccnc4Nc4ccccc4-5)cc3)CC2)no1 [Example 142, (4-(4-(9H-benzo[f]pyrido[2,3-b][1,2,4]triazolo[4,3-d][1,4]diazepin-3-yl)benzyl)piperazin-1-yl)(5-methylisoxazol-3-yl)methanone] |
| 4900 | O=C(c1ccc(F)c(F)c1)N1CCN(Cc2ccc(-c3nnc4n3-c3cccnc3Nc3ccccc3-4)cc2)CC1 [Example 143, (4-(4-(9H-benzo[f]pyrido[2,3-b][1,2,4]triazolo[4,3-d][1,4]diazepin-3-yl)benzyl)piperazin-1-yl)(3,4-difluorophenyl)methanone] |
| 1900 | O=C(c1ccccc1)N1CCN(Cc2ccc(-c3nnc4n3-c3cccnc3Nc3ccccc3-4)cc2)CC1 [Example 144, (4-(4-(9H-benzo[f]pyrido[2,3-b][1,2,4]triazolo[4,3-d][1,4]diazepin-3-yl)benzyl)piperazin-1-yl)(phenyl)methanone] |
| 790 | COC(=O)c1sccc1S(=O)(=O)NC1CCN(Cc2ccc(-c3nnc4n3-c3cccnc3Nc3ccccc3-4)cc2)CC1 [Example 145, methyl 3-(N-(1-(4-(9H-benzo[f]pyrido[2,3-b][1,2,4]triazolo[4,3-d][1,4]diazepin-3-yl)benzyl)piperidin-4-yl)sulfamoyl)thiophene-2-carboxylate] |
| 6800 | Cc1noc(C)c1S(=O)(=O)NC1CCN(Cc2ccc(-c3nnc4n3-c3cccnc3Nc3ccccc3-4)cc2)CC1 [Example 146, N-(1-(4-(9H-benzo[f]pyrido[2,3-b][1,2,4]triazolo[4,3-d][1,4]diazepin-3-yl)benzyl)piperidin-4-yl)-3,5-dimethylisoxazole-4-sulfonamide] |
| 2300 | O=S(=O)(NC1CCN(Cc2ccc(-c3nnc4n3-c3cccnc3Nc3ccccc3-4)cc2)CC1)c1ccccc1F [Example 147, N-(1-(4-(9H-benzo[f]pyrido[2,3-b][1,2,4]triazolo[4,3-d][1,4]diazepin-3-yl)benzyl)piperidin-4-yl)-2-fluorobenzenesulfonamide] |
| 3400 | O=S(=O)(CC1CCCCC1)NC1CCN(Cc2ccc(-c3nnc4n3-c3cccnc3Nc3ccccc3-4)cc2)CC1 [Example 148, N-(1-(4-(9H-benzo[f]pyrido[2,3-b][1,2,4]triazolo[4,3-d][1,4]diazepin-3-yl)benzyl)piperidin-4-yl)-1-cyclohexylmethanesulfonamide] |
| 5300 | O=S(=O)(NC1CCN(Cc2ccc(-c3nnc4n3-c3cccnc3Nc3ccccc3-4)cc2)CC1)C1CC1 [Example 149, N-(1-(4-(9H-benzo[f]pyrido[2,3-b][1,2,4]triazolo[4,3-d][1,4]diazepin-3-yl)benzyl)piperidin-4-yl)cyclopropanesulfonamide] |

| SMILES | IC50 [nM] |
| --- | --- |
| O=C(Cc1ccccc1)N1CCN(Cc2ccc(-c3nnc4n3-c3cccnc3Nc3ccccc3-4)cc2)CC1 [Example 140, 1-(4-(4-(9H-benzo[f]pyrido[2,3-b][1,2,4]triazolo[4,3-d][1,4]diazepin-3-yl)benzyl)piperazin-1-yl)-2-phenylethanone] | 6000 |
